Measurements: ChEMBL document CHEMBL5154858, “Pocket-to-Lead: Structure-Based De Novo Design of Novel Non-peptidic HIV-1 Protease Inhibitors Using the Ligand Binding Pocket as a Template” (J Med Chem, 2022)

Experiments:
[1] = target: Human immunodeficiency virus type 1 protease (Human immunodeficiency virus 1, UniProt Q72874); experiment: Inhibition of wild type HIV1 protease expressed in Escherichia coli BL21 DE3 assessed as cleavage of fluorogenic substrate using EDANS-RESGIFLETSKR-DABCYL preincubated for 15 mins with compound followed by substrate addition and measured after 60 mins by microplate reader analysis
[2] = tested on: Human immunodeficiency virus 1; experiment: Antiviral activity against HIV-1 IIIB infected in human MT4 cells assessed as inhibition of virus-induced cell death preincubated for 1 hr with compound followed by viral infection measured after 5 days by MTT assay; assay type: functional, organism-based; details: Human immunodeficiency virus 1, IIIB

CCC[C@]1(c2ccc(S(C)(=O)=O)cc2)C(=O)N(Cc2ccc(OC)cc2)C[C@@H]1O (mixture of isomers)
IC50 [1]: 32 µM

COc1ccc(CN2C[C@H](O)[C@@](CCC(C)C)(c3ccc(S(C)(=O)=O)cc3O[C@@H](C)CO)C2=O)cc1 (mixture of isomers)
IC50 [1]: 0.0071 µM
EC50 [2]: 0.86 µM

COc1ccc(CN2C[C@@H](O)[C@@](Cc3ccc(F)cc3)(c3ccc(S(C)(=O)=O)cc3)C2=O)cc1 (mixture of isomers)
IC50 [1]: 77 µM

COc1ccc(CN2C[C@H](O)[C@@](Cc3ccc(F)cc3)(c3ccc(S(C)(=O)=O)cc3)C2=O)cc1 (racemic)
IC50 [1]: 54 µM

COc1ccc(CN2C[C@H](O)[C@@](CCC(C)C)(c3ccc(S(C)(=O)=O)cc3OC(C)C)C2=O)cc1 (mixture of isomers)
IC50 [1]: 0.082 µM
EC50 [2]: 11 µM

COc1ccc(CN2C[C@H](O)[C@@](CCC(C)C)(c3ccc(S(C)(=O)=O)cc3)C2=O)cc1 (mixture of isomers)
IC50 [1]: 2 µM
EC50 [2]: > 20 µM

COc1ccc(CN2C[C@H](O)[C@@](CC(C)C)(c3ccc(S(C)(=O)=O)cc3)C2=O)cc1 (mixture of isomers)
IC50 [1]: 34 µM
